Source: ChEMBL document CHEMBL1909046, “DrugMatrix in vitro pharmacology data”

Key:
[1] = target: Sigma non-opioid intracellular receptor 1 (Homo sapiens, UniProt Q99720); assay: DRUGMATRIX: Sigma1 radioligand binding (ligand: [3H] Haloperidol); type: cell membranes, Jurkat, Membrane; settings: Not Active = under 50% inhibition at 10 µM; for Ki: read-out: Ki
[2] = target: Vascular endothelial growth factor receptor 1 (Homo sapiens, UniProt P17948); type: cell-based; settings: huvec; note: in other assays of this panel Not Active means under 50% inhibition at 10 µM
Chain of Vascular endothelial growth factor receptor 1 (P17948 whole entry): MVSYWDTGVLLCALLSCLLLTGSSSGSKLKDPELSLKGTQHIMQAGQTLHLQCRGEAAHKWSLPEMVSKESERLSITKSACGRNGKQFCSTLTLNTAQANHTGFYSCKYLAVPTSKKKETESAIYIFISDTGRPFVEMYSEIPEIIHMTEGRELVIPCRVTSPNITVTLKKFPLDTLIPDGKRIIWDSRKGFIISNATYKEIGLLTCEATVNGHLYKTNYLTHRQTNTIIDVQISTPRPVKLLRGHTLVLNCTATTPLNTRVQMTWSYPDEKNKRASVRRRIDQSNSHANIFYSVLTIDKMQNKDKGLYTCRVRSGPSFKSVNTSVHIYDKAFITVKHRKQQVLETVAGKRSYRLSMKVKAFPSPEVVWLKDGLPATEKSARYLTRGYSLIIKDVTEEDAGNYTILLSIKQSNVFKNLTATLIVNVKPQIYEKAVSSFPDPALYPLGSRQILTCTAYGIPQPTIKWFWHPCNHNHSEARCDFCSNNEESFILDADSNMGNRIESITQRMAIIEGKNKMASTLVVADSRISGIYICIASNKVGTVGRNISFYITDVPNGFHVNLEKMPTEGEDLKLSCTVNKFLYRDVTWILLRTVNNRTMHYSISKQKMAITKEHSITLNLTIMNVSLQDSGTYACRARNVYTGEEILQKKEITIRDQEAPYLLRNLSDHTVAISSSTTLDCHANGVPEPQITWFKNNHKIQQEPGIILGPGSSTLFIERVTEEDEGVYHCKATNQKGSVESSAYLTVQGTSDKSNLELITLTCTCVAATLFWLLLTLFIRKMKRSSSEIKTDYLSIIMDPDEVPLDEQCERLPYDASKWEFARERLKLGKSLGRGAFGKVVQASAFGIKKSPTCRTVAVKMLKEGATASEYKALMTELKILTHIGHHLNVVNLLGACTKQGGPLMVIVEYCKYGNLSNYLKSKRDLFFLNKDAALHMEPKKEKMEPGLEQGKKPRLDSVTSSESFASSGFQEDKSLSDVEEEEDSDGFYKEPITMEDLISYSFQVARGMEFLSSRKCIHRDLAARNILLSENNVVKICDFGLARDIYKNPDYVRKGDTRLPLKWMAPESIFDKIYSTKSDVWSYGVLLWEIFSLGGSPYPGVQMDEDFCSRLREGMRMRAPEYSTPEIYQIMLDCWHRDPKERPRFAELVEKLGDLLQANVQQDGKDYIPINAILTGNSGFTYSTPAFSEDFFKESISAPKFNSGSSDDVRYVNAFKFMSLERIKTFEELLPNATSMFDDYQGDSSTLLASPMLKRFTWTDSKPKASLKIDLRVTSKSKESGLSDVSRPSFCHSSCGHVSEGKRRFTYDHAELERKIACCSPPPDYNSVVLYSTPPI

[3] = target: Delta-type opioid receptor (Homo sapiens, UniProt P41143); type: cell membranes, HEK293, Membrane; settings: hek293; note: in other assays of this panel Not Active means under 50% inhibition at 10 µM
Chain of Delta-type opioid receptor (P41143 whole entry): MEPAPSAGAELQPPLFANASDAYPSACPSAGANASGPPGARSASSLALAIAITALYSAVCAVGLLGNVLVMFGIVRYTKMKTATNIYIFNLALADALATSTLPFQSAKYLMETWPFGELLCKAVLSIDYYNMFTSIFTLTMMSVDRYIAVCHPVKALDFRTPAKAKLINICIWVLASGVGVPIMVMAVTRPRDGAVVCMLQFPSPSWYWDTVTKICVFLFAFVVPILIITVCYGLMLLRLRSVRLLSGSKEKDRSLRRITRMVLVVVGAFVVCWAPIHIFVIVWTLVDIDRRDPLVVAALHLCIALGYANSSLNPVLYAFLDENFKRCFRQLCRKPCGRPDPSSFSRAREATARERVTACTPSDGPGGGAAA

[4] = DRUGMATRIX: Potassium Channel [KATP] radioligand binding (ligand: [3H] Glyburide); type: cell membranes, Membrane; settings: hit-t15; Not Active = under 50% inhibition at 10 µM
[5] = target: T1, Alpha-1A adrenergic receptor (Rattus norvegicus, UniProt P43140); assay: DRUGMATRIX: Alpha-1A adrenergic receptor radioligand binding (ligand: prazosin); type: cell membranes, Wistar, Submaxillary gland, Membrane; settings: Not Active = under 50% inhibition at 10 µM; for Ki: read-out: Ki
T1 sequence (P43140 whole entry): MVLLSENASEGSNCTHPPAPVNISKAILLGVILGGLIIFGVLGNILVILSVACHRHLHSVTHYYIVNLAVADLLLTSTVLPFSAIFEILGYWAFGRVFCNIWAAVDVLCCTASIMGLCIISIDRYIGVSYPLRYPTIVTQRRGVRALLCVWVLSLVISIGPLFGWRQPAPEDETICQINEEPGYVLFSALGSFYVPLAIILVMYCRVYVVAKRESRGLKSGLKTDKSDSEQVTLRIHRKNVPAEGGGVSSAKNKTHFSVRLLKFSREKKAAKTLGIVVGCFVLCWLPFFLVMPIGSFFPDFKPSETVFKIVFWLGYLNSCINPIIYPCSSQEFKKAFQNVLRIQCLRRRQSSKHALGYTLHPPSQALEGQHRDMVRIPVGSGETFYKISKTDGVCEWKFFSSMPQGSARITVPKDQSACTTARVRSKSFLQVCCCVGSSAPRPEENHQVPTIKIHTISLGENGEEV

[6] = target: T2, Muscarinic acetylcholine receptor M4 (Homo sapiens, UniProt P08173); type: cell membranes, CHO-K1, Membrane; settings: for Ki: read-out: Ki; for all read-outs here: in other assays of this panel Not Active means under 50% inhibition at 10 µM
T2 sequence (P08173 whole entry): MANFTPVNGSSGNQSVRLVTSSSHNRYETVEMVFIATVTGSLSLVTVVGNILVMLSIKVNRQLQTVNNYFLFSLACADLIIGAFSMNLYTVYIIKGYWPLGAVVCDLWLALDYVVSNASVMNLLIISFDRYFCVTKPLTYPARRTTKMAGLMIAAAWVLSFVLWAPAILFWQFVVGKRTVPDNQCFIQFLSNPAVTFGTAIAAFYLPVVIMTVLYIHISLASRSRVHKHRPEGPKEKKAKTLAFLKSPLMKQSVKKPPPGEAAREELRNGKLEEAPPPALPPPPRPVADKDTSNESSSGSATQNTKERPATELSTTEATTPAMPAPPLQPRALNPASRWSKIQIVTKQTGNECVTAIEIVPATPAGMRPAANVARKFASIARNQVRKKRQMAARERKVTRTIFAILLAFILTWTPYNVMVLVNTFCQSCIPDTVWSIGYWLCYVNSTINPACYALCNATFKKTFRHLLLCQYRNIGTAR

Cytochrome P450 2D6 = Cytochrome P450 2D6 (Homo sapiens, UniProt P10635); settings: bti-tn-5b1-4; note: in other assays of this panel Not Active means under 50% inhibition at 10 µM
Chain of Cytochrome P450 2D6 (P10635 whole entry): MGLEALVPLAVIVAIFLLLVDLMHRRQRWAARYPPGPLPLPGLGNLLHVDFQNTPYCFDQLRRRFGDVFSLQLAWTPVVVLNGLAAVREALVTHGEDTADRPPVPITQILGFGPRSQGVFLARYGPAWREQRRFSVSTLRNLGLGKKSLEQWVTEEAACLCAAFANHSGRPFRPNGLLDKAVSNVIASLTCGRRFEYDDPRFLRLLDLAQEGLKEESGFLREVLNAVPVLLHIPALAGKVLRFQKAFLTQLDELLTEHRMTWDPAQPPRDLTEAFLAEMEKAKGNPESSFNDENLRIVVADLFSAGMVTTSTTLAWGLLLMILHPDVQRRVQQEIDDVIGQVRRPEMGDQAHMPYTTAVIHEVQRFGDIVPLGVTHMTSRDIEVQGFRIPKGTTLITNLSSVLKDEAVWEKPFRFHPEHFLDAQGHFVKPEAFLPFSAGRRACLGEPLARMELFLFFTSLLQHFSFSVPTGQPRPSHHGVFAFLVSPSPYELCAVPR

Chain of Sigma non-opioid intracellular receptor 1 (Q99720 whole entry): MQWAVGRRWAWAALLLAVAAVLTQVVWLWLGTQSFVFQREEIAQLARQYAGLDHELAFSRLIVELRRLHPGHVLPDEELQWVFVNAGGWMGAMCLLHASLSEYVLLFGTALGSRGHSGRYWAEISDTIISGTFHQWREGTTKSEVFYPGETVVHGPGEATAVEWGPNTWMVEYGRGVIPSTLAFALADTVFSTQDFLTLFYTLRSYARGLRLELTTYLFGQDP

Structure (SMILES) | IC50 ([1]; jurkat) | IC50 [2] | IC50 [3] | IC50 [4] | Ki [4] | IC50 [5] | IC50 ([6]; cho-k1) | IC50 (Cytochrome P450 2D6) | Ki (Cytochrome P450 2D6) | IC50 ([1]; read-out: IC50) [nM] | Ki [1] [nM] | IC50 ([5]; read-out: IC50) [nM] | Ki [5] [nM] | IC50 ([6]; read-out: IC50) [nM] | Ki [6] [nM]
CC(C)CN(C[C@@H](O)[C@H](Cc1ccccc1)NC(=O)O[C@H]1CCOC1)S(=O)(=O)c1ccc(N)cc1 | Not Active | Not Active | Not Active | Not Active | Not Active | Not Active | Not Active |  |  |  |  |  |  |  | 
c1ccc(Nc2ccc(Nc3ccccc3)cc2)cc1 | Not Active | Not Active | Not Active | Not Active | Not Active | Not Active | Not Active | Not Active | Not Active |  |  |  |  |  | 
COc1cc2c3cc1Oc1cc(ccc1O)C[C@@H]1c4c(cc(OC)c(O)c4Oc4ccc(cc4)C[C@@H]3N(C)CC2)CC[N+]1(C)C.[Cl-] | Not Active | Not Active | Not Active | Not Active | Not Active | Not Active | Not Active | Not Active | Not Active |  |  |  |  |  | 
NC(=O)N1c2ccccc2CCc2ccccc21 | Not Active | Not Active | Not Active | Not Active | Not Active | Not Active | Not Active | Not Active | Not Active |  |  |  |  |  | 
O=C1CC[C@@H](N2C(=O)c3ccccc3C2=O)C(=O)N1 | Not Active | Not Active | Not Active | Not Active | Not Active | Not Active | Not Active | Not Active | Not Active |  |  |  |  |  | 
Cc1onc(O)c1CC(N)C(=O)O (racemic) [(R,S)-AMPA] | Not Active | Not Active | Not Active | Not Active | Not Active | Not Active | Not Active | Not Active | Not Active |  |  |  |  |  | 
Cc1ccc2cc3c(ccc4ccccc43)c3c2c1CC3 [3-METHYLCHOLANTHRENE] | Not Active | Not Active | Not Active | Not Active | Not Active | Not Active | Not Active | Not Active | Not Active |  |  |  |  |  | 
CC[C@@]1(O)C[C@H](O[C@H]2C[C@H](N(C)C)[C@H](O[C@H]3C[C@H](O)[C@H](O[C@H]4CCC(=O)[C@H](C)O4)[C@H](C)O3)[C@H](C)O2)c2c(cc3c(c2O)C(=O)c2c(O)cccc2C3=O)[C@H]1C(=O)OC [ACLARUBICIN] | Not Active | Not Active | Not Active | Not Active | Not Active | Not Active | Not Active | Not Active | Not Active |  |  |  |  |  | 
Nc1nc2c(ncn2COCCO)c(=O)[nH]1 [ACYCLOVIR] | Not Active | Not Active | Not Active | Not Active | Not Active | Not Active | Not Active | Not Active | Not Active |  |  |  |  |  | 
Cc1c(C)c2c(c(C)c1O)CC[C@@](C)(CCC[C@H](C)CCC[C@H](C)CCCC(C)C)O2 [ALPHA-TOCOPHEROL] | Not Active | Not Active | Not Active | Not Active | Not Active | Not Active | Not Active | Not Active | Not Active |  |  |  |  |  | 
CN(C)c1nc(N(C)C)nc(N(C)C)n1 [ALTRETAMINE] | Not Active | Not Active | Not Active | Not Active | Not Active | Not Active | Not Active |  |  |  |  |  |  |  | 
Nc1c(Br)cc(Br)cc1CN[C@H]1CC[C@H](O)CC1 [AMBROXOL] | Not Active | Not Active | Not Active | Not Active | Not Active | Not Active | Not Active |  |  |  |  |  |  |  | 
NCCCCCC(=O)O [AMINOCAPROIC ACID] | Not Active | Not Active | Not Active | Not Active | Not Active | Not Active | Not Active | Not Active | Not Active |  |  |  |  |  | 
CCC1(c2ccc(N)cc2)CCC(=O)NC1=O (stereo unspecified) [AMINOGLUTETHIMIDE] | Not Active | Not Active | Not Active | Not Active | Not Active | Not Active | Not Active | Not Active | Not Active |  |  |  |  |  | 
CN(C)C(=O)Oc1cc(OC(=O)N(C)C)cc(C(O)CNC(C)(C)C)c1 (stereo unspecified) [BAMBUTEROL] | Not Active | Not Active | Not Active | Not Active | Not Active | Not Active | Not Active |  |  |  |  |  |  |  | 
CN(Cc1ccc(C(C)(C)C)cc1)Cc1cccc2ccccc12 [BUTENAFINE] |  | Not Active | Not Active | Not Active | Not Active | Not Active | Not Active |  |  | 3950 | 1660 |  |  |  | 
Cc1ccc(-c2cc(C(F)(F)F)nn2-c2ccc(S(N)(=O)=O)cc2)cc1 [CELECOXIB] | Not Active | Not Active | Not Active | Not Active | Not Active | Not Active | Not Active |  |  |  |  |  |  |  | 
CN(C)CCCN1c2ccccc2Sc2ccc(Cl)cc21 [CHLORPROMAZINE] |  | Not Active |  | Not Active | Not Active |  |  |  |  |  |  |  |  |  | 
CC(C)(Oc1ccc(Cl)cc1)C(=O)O [CLOFIBRIC ACID] | Not Active | Not Active | Not Active | Not Active | Not Active | Not Active | Not Active |  |  |  |  |  |  |  | 
Clc1cccc(Cl)c1NC1=NCCN1 [CLONIDINE] | Not Active | Not Active | Not Active | Not Active | Not Active |  | Not Active | Not Active | Not Active |  |  |  |  |  | 
O=C(CCCN1CC=C(n2c(=O)[nH]c3ccccc32)CC1)c1ccc(F)cc1 [DROPERIDOL] |  | Not Active | Not Active | Not Active | Not Active |  |  | Not Active | Not Active |  |  | 1.65 | 0.669 | 3850 | 537
C[C@]12CC[C@@H]3c4ccc(O)cc4CC[C@H]3[C@@H]1CCC2=O [ESTRONE] | Not Active | Not Active | Not Active | Not Active | Not Active | Not Active | Not Active |  |  |  |  |  |  |  | 
N=C(N)NCCN1CCCCCCC1 [GUANETHIDINE] | Not Active | Not Active | Not Active | Not Active | Not Active | Not Active | Not Active |  |  |  |  |  |  |  | 
CCCCN1CCCC[C@H]1C(=O)Nc1c(C)cccc1C [LEVOBUPIVACAINE] | Not Active | Not Active | Not Active | Not Active | Not Active | Not Active | Not Active |  |  |  |  |  |  |  | 
CC1(C)S[C@@H]2[C@H](NC(=O)Cc3ccccc3)C(=O)N2[C@H]1C(=O)O [PENICILLIN G] | Not Active | Not Active | Not Active | Not Active | Not Active | Not Active | Not Active |  |  |  |  |  |  |  | 
CCCN1C[C@H](CSC)C[C@@H]2c3cccc4[nH]cc(c34)C[C@H]21 [PERGOLIDE] | Not Active | Not Active | Not Active | Not Active | Not Active |  | Not Active |  |  |  |  | 1930 | 781 |  | 
C1CCC(C(CC2CCCCN2)C2CCCCC2)CC1 (stereo unspecified) [PERHEXILINE] |  | Not Active | Not Active | Not Active | Not Active | Not Active |  |  |  | 2600 | 1090 |  |  | 3590 | 501
Cc1ccc(N(CC2=NCCN2)c2cccc(O)c2)cc1 [PHENTOLAMINE] | Not Active | Not Active | Not Active | Not Active | Not Active |  | Not Active |  |  |  |  |  |  |  | 
CN(C)CCCN1c2ccccc2Sc2ccccc21 [PROMAZINE] |  | Not Active | Not Active | Not Active | Not Active |  |  |  |  | 271 | 114 | 9.24 | 3.74 | 299 | 42
